{
  "source": "patent US12239713B2",
  "about": "“Degradable polyethylene glycol conjugate” (NOF CORPORATION, priority 2018, dated 2025)",
  "tested_on": "blood calcium concentration",
  "experiment": "Evaluation of physiological activity of PEGylated salmon calcitonin (blood calcium concentration)",
  "assay_type": "in vivo, Mouse Balb/c",
  "conditions": "sCT dose 40 μg/kg, blood at 1, 3, 6, 24 hr, compared to saline (PBS) group, FIG. 10",
  "method": "The method for evaluating the physiological activity of a bio-related substance bonded to a degradable polyethylene glycol derivative is not particular limited. For example, when the bio-related substance is insulin, blood sugar concentration is measured, and when it is calcitonin, blood calcium concentration is measured, by periodically collecting blood from the animal that received administration and measuring the substance in the blood by using an appropriate analytical instrument, and the like, based on which the evaluation can be performed. Specifically, in the case of insulin, a glucose measurement kit is used to monitor a decrease in glucose concentration after administration and, in the case of calcitonin, a decrease in calcium concentration after administration is monitored using a calcium measurement kit, based on which the evaluation can be performed.\nThe physiological activities of 4 groups of ME-200GLFG (SEQ ID NO: 4) (L)-200-sCT which is SCT to which degradable polyethylene glycol derivative with a molecular weight of 40,000 is bonded and obtained in Example 16, methoxy PEG 40 kDa-sCT bonded to nondegradable methoxy PEG 40 kDa, unmodified sCT, and saline were comparatively evaluated in animal experiments. […]",
  "note": "Where no end group is shown, it is not given here.",
  "data": [
    {"substance": "salmon calcitonin (CSNLSTCVLGKLSQELHKLQTYPRTNTGSGTP; ends and bridges not checked; cysteine pairing not given here) [Unmodified sCT]", "values": [
      {"measurement": "calcium concentration in blood (in words)", "value": "showed an increase in calcium concentration 6 hr after administration"}
    ]}
  ]
}
